# Measured values from paper PMC5024137 (Scientific Reports, 2016).
# T1: hOATP2B1 (Homo sapiens, UniProt O94956)
# T1 sequence (O94956 1-709): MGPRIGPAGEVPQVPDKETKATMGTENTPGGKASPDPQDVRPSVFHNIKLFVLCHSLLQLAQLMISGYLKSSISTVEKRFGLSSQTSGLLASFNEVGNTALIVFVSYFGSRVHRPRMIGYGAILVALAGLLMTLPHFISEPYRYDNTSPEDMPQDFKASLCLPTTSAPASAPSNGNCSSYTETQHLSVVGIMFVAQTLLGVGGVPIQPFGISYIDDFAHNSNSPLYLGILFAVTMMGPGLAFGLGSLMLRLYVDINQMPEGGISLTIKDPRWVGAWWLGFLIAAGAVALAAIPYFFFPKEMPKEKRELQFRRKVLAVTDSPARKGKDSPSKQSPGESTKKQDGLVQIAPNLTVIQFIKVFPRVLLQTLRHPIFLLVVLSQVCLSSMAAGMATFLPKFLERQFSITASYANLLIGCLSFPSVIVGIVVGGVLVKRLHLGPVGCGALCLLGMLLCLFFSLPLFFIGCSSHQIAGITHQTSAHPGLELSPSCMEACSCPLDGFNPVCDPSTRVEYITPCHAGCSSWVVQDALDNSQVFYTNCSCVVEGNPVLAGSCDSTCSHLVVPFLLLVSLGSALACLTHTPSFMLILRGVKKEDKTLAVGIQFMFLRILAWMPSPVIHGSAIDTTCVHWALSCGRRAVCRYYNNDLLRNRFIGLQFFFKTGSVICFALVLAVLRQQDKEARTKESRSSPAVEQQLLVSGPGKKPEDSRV
# B1: hOATP2B1 (Homo sapiens) (protein)
# chain: T1 sequence (O94956 1-709)
# Assays:
# hOATP2B1 [1] = target: T1, hOATP2B1; experiment: Cellular uptake assay: intracellular accumulation in HEK293-hOATP2B1 vs HEK293-MOCK cells (HPLC-MS/MS); conditions: 0.25 μM, HBSS pH7.4, 37 °C, 20 min
# hOATP2B1 [2] = target: T1, hOATP2B1; experiment: pH dependent uptake of morphine and M6G in HEK293-hOATP2B1 cells; conditions: 0.25 μM, HBSS, 37 °C, 20 min
# [3] = substrate: CN1CC[C@]23c4c5ccc(O)c4O[C@H]2[C@@H](O[C@@H]2O[C@H](C(=O)O)[C@@H](O)[C@H](O)[C@H]2O)C=C[C@H]3[C@H]1C5; experiment: cells, lysate or membranes named; conditions: other: HEK293-hOATP2B1 cells, 0.25 to 100 μM, pH7.4, 37 °C, 20 min, pH 7.4
# From the text: V is the initial uptake rate of the substrate (pmol/min/mg protein), S is the substrate concentration in the medium (μM) and Pdif is the uptake clearance corresponding to the passive diffusion and nonspecific binding to the cell surface. Unpaired two-side Student’s t-test was applied for comparisons of two groups’ data. A P value < 0.05 was considered statistically significant.
molecule,measurement,setting,value
"C[C@]12CC[C@@H]3c4ccc(OS(=O)(=O)[O-])cc4CC[C@H]3[C@@H]1CCC2=O.[Na+] [E-3-S, estrone-3-sulfate sodium salt]",increase of intracellular accumulation in HEK293-hOATP2B1 compared to HEK293-MOCK,hOATP2B1 [1],2 to 3 fold
"CN1CC[C@]23c4c5ccc(O[C@@H]6O[C@H](C(=O)O)[C@@H](O)[C@H](O)[C@H]6O)c4O[C@H]2[C@@H](O)C=C[C@H]3[C@H]1C5 [M3G, morphine-3-glucuronide]",increase of intracellular accumulation in HEK293-hOATP2B1 compared to HEK293-MOCK,hOATP2B1 [1],didn’t show any differences
"CN1CC[C@]23c4c5ccc(O)c4O[C@H]2[C@@H](O[C@@H]2O[C@H](C(=O)O)[C@@H](O)[C@H](O)[C@H]2O)C=C[C@H]3[C@H]1C5 [M6G, morphine-6-glucuronide]",concentration in HEK293-hOATP2B1 cells at pH6.0 relative to pH7.4,hOATP2B1 [2],2.05 fold
same,increase of intracellular accumulation in HEK293-hOATP2B1 compared to HEK293-MOCK,hOATP2B1 [1],more than 2 fold
same,intracellular accumulation,hOATP2B1 [1]; HEK293-MOCK cells,0.26 nM
same,intracellular accumulation,hOATP2B1 [1]; HEK293-hOATP2B1 cells,0.71 nM
CC(C)n1c(/C=C/C(O)CC(O)CC(=O)O)c(-c2ccc(F)cc2)c2ccccc21 (centres unmarked) [fluvastatin],increase of intracellular accumulation in HEK293-hOATP2B1 compared to HEK293-MOCK,hOATP2B1 [1],2 to 3 fold
B1,Km,[3],80.31 ± 21.75 µM
